# Results: patent US8822698B2, “Aminoacid derivatives, their process of preparation and their therapeutical uses as inhibitors of oncogenic signals by the Met family” (Universite D'Aix-Marseille, priority 2009, dated 2014)
# How the values were obtained:
# DU-145 = assay: NCI 60 human tumour cell line screen; format: cell-based; conditions: conc. 10^−5M; DU-145, Prostate Cancer
# Source text: (§1) Compound of example 4 was screened in the NCI 60 human tumour cell line anticancer drug screen (Shoemaker et al Nature reviews 6, 2006, 813-823).
# OVCAR-4 = assay: NCI 60 human tumour cell line screen; format: cell-based; conditions: conc. 10^−5M; OVCAR-4, Ovarian Cancer
# Source text: as §1
# MDA-MB-435 = assay: NCI 60 human tumour cell line screen; format: cell-based; conditions: conc. 10^−5M; MDA-MB-435, Melanoma
# Source text: as §1
# 786-0 = assay: NCI 60 human tumour cell line screen; format: cell-based; conditions: conc. 10^−5M; 786-0, Renal Cancer
# Source text: as §1
# U251 = assay: NCI 60 human tumour cell line screen; format: cell-based; conditions: conc. 10^−5M; U251, CNS Cancer
# Source text: as §1
# SR = assay: NCI 60 human tumour cell line screen; format: cell-based; conditions: conc. 10^−5M, Leukemia
# Source text: as §1
# NCl-H23 = assay: NCI 60 human tumour cell line screen; format: cell-based; conditions: conc. 10^−5M; NCl-H23, Non-Small Cell Lung Cancer
# Source text: as §1
# MDA-MB-468 = assay: NCI 60 human tumour cell line screen; format: cell-based; conditions: conc. 10^−5M; MDA-MB-468, Breast Cancer
# Source text: as §1
# M14 = assay: NCI 60 human tumour cell line screen; format: cell-based; conditions: conc. 10^−5M; M14, Melanoma
# Source text: as §1
# [1] = tested on: Met-triggered cell scattering, MDCK cells; assay: HGF-induced MDCK cell scattering assay; format: cell-based; conditions: Canis lupus familiaris; MDCK cells, 20 ng/ml HGF; read-out: IC50 scattering inhibition
# Protocol: (§2) MDCK cells were grown in Dulbecco's modified Eagle's medium (DMEM) (Gibco BRL) containing 4 mM L-glutamine and supplemented with 2% (v/v) foetal bovine serum (Gibco BRL), 100 U/mL penicillin, and 100 μg/mL streptomycin. Cells were plated at a density of 1000 cells per well in 24-well microplates and allowed to settle overnight at 37° C. in a humidified atmosphere of 5% CO2 prior to treatments. MCF10A human breast cells, MDA-MB231 human breast cancer cells, GTL-16 human gastric carcinoma cells, HepG2 human hepatocellular carcinoma cells, U-87 human glioblastoma-astrocytoma cells and LLC Lewis lung carcinoma cells were grown in RPMI medium (Gibco BRL) containing 4 mM L-glutamine and supplemented with 2% (v/v) foetal bovine serum (Gibco BRL), 100 U/mL penicillin, and 100 μg/mL streptomycin and kept at 37° C. in a humidified atmosphere of 5% CO2.
# For scattering assays, MDCK cells were pre-incubated with compounds for 2 hours at 0.1-100 μM concentrations at 37° C. in a humidified atmosphere of 5% CO2, followed by 24 hr stimulation with 20 ng/ml HGF (R&D Systems), as previously described (Patane et al., Biochem Biophys Res Commun 375, 184-189, 2008). The cells were further incubated at 37° C. in an atmosphere of 5% CO2 for 24-48 hours, washed with phosphate-buffered saline (PBS; Gibco BRL), and fixed in PFA (Sigma). The quantification of scattering response was performed by counting the number of cells with scattered morphology in 30 independent colonies. The […] corresponds to the concentration of compounds leading to a 50% inhibition of Met-triggered cell scattering. Active compounds were assayed to impair scattering response also on human breast MCF10A cells following the same procedure. For survival assays, GTL-16, HepG2 and U-87 cells were cultured in serum-free media for 24 hours prior to compound addition for 48 hours. Viability was assessed with the Cell Titer Glo Luminescent Assay (Promega). For in vitro tumorigenesis, soft agar growth assays were preformed using GTL-16, HepG2, and U-87 cells, as previously described (Patane et al., Cancer Res 66, 4750-4757, 2006).
# Compounds were first submitted to a biological screening of cell motility, namely scattering response. MDCK epithelial cells acquire a “scattered phenotype” following stimulation by the Met ligand, HGF (Chan et al., J Biomol Screen. 13, 847-854, 2008; Corso et al., Trends Mol Med 11, 284-292, 2005; Patane et al., Biochem Biophys Res Commun 375, 184-189, 2008), allowing direct evaluation of compounds on Met functions. The Met inhibitor […] was used as control in all assays (Schiering et al., Proc Natl Acad Sci USA 100, 12654-12659, 2003).
# GTL-16 cells = assay: In vivo tumorigenesis, GTL-16 cells injected intra-peritoneally in nude mice
# Protocol: Xenografts of GTL-16 cells were established by intraperitoneal (i.p.) or subcutaneously (into the flank/leg region) injection of cells (10^6) in nude mice (S/SOPF SWISS NU/NU; Charles River). Mice were then treated with the compound of example 4 (i.p. 30 mg kg-1) or vehicle every two days (GTL-16 cell intra-peritoneally injected at d=0, treatment started at d=1) or every day (GTL-16 cell intra-peritoneally injected at d=0, treatment started at d=7; GTL-16 cell subcutaneously injected at d=0, treatment started at d=1). Treatments were performed either one day or seven days after cancer cell injection. Mice were then sacrificed, and tumor nodule numbers present in the peritoneal cavity, the measure of their diameter and their total weight was evaluated. Three independent tumorigenesis assays were performed (8 mice per group were used).
# We evaluated the ability of compounds of general formula to impair tumour growth in vivo using nude mice injected intra-peritoneally with GTL-16 cells. […] For example, when compounds were administered one day after intraperitoneally injection of GTL-16 cells, the mean numbers of nodules were the following: a) mice trated with vehicle: <1 mm: 3; 1-2 mm: 9.3; 2-5 mm: 11; >5 mm: 3.5. b) mice treated with the compound of example 4: <1 mm: 0.3; 1-2 mm: 1.3; 2-5 mm: 1; >5 mm: 0.8 (FIG. 3). […] Moreover, tumour growth of GTL-16 cells subcutaneously injected was reduced by approximately 35% in mice treated with compounds (data not shown). Taken together, these findings provide evidence that the identified new scaffold interferes with tumour growth in vivo.
# HepG2 cells = assay: Soft agar anchorage-independent growth (in vitro tumorigenesis), HepG2; format: cell-based; conditions: Homo sapiens, read-out: HepG2 IC 50
# Protocol: as §2
# For scattering assays, MDCK cells were pre-incubated with compounds for 2 hours at 0.1-100 μM concentrations at 37° C. in a humidified atmosphere of 5% CO2, followed by 24 hr stimulation with 20 ng/ml HGF (R&D Systems), as previously described (Patane et al., Biochem Biophys Res Commun 375, 184-189, 2008). […] The quantification of scattering response was performed by counting the number of cells with scattered morphology in 30 independent colonies. […] Viability was assessed with the Cell Titer Glo Luminescent Assay (Promega). […]
# [2] = i.p. 30 mg kg-1, treatment one day after i.p. injection of GTL-16 cells
# [3] = nude mice injected i.p. with GTL-16 cells
smiles,measurement,setting,value
"O=C(Cc1cc(C(F)(F)F)cc(C(F)(F)F)c1)N[C@@H](Cc1ccccc1)C(=O)Nc1ccc(-c2cn3c(n2)sc2ccccc23)cc1 [Example 4, (S)-2-(3,5-bis(trifluoromethyl)phenylacetamido)-3-phenyl-N-[4-(imidazo[2,1-b]benzothiazol-2-yl)phenyl]propanamide]",Growth Percent,DU-145,70.37%
same,Growth Percent,OVCAR-4,−0.79%
same,Growth Percent,MDA-MB-435,54.92%
same,Growth Percent,786-0,60.35%
same,Growth Percent,U251,34.24%
same,Growth Percent,SR,58.33%
same,Growth Percent,NCl-H23,39.55%
same,Growth Percent,MDA-MB-468,78.09%
same,Growth Percent,M14,30.58%
same,IC50,[1],0.171 µM
same,mean number of nodules 1-2 mm,GTL-16 cells; [2],1.3
same,mean number of nodules 2-5 mm,GTL-16 cells; [2],1
same,mean number of nodules <1 mm,GTL-16 cells; [2],0.3
same,mean number of nodules >5 mm,GTL-16 cells; [2],0.8
same,number of tumours,GTL-16 cells; [3],drastically reduced
same,total weight of tumours,GTL-16 cells; [3],drastically reduced
same,IC50,HepG2 cells,0.321 µM
